# Data taken from patent US20060014641A1 (priority 2004, published 2006).
# How the values were obtained:
# boll weevil larvae [1] = assay: Boll weevil larvae bioassay (agar liquid diet); settings: in vivo
# Description: Boll Weevil Larvae Bioassay
# Assays for activity against boll weevil larvae are carried out by incorporating the test sample into a agar liquid diet similar to that for southern corn rootworm [Marrone P. G., Ferri F. D., Mosley T. R., Meinke L. J., “Improvements in laboratory rearing of the southern corn rootworm, Diabrotica undecimpunctata howardi Barber (Coleoptera: Chrysomelidae) on artificial diet and corn,” Journal of Economic Entomology, 78:290-3, 1985]. The test sample is substituted for the 20% water component. Neonate larvae are allowed to feed on the diet and mortality and growth stunting are evaluated.
# Lepidopteran larvae = Lepidopteran larvae bioassay (artificial diet); design: species or system lepidopteran insects; settings: in vivo
# Description: Lepidopteran Larvae Bioassay
# Lepidopteran larvae are tested on artificial diet treated with various amounts of oxalate for a number of days.
# adult boll weevils = assay: Boll weevil reproduction test; type: in vivo; settings: oxalate in standard diet
# Description: Preoviposition: Approximately 220 adult boll weevils, collected within 2 days of emergence, are divided into two groups. […] The adults are allowed to feed and mate for four days at which time mortality is determined. Oviposition study: These two groups of adults are then divided into two subgroups and individually placed on artificial, oxalate-containing or control bolls. […] After three days at 27% C, the adults are removed and ten bolls from each of the four groups are removed and examined for eggs. The remaining bolls are incubated for an additional 7 days at 27% C to allow development of larvae. The bolls are then dissected and the eggs and larvae, dead and surviving, are counted. • Group 1=Control Adults placed on control bolls • Group 2=Control Adults placed on treated bolls • Group 3=oxalate-fed adults placed on control bolls • Group 4=oxalate-fed adults placed on treated bolls Mode of Action Studies
# boll weevil larvae [2] = assay: Cotton seed diet assay; type: in vivo; settings: cottonseed flour diets, after six days, in the presence of cotton plant components
# Description: Two treatment diets are made by mixing 30 g of one of two types of cottonseed flour into 170 mL of a 1.6% agar solution at 50% C, containing 0.13% propionic acid, 0.014% phosphoric acid, and 30 mg each of streptomycin sulfate and chlortetracycline. Before mixing, 10% KOH was used to adjust the pH to 6.2. One test diet utilized raw cottonseed flour (Sigma) as the nutrient source; the other utilized Pharmamedia.™. (Traders Protein), a flour made up of cottonseed embryos. The diets were incubated in a water bath at 40% C. Dilutions of the oxalate are incorporated into the diets as described above. Boll weevil larvae are allowed to feed and mortality rates are determined after six days.
# boll weevil larvae [3] = assay: Homogenized cotton leaf tissue assay; type: in vivo; settings: cotton leaf tissue agar diet, evaluated six days later
# Description: Homogenized Cotton Leaf Tissue Assay In order to test oxalate against boll weevil larvae in a host tissue diet environment, a study is conducted in which cotton leaf tissue is the only nutritional component of an agar-based diet. Two cotton leaves (each approx. 5 inches wide) with stems are homogenized at 50% C into 170 mL of a 1.6% agar solution containing 0.13% propionic acid, 0.014% phosphoric acid, and 30 mg each of streptomycin sulfate and chlortetracycline. Before addition of the leaves, 10% KOH is used to adjust the pH of the agar solution to 6.2. The leaf “diet” is allowed to cool to 40% C. Dilutions of oxalate and a water control are incorporated into the leaf “diet”, poured into insect diet trays and allowed to cool. Boll weevil eggs are added to the diet wells. The assay is evaluated six days later. […] This will illustrate that the oxalate is insecticidal in the presence of intact cotton tissue and cells.
smiles,measurement,setting,value
"O=C(O)C(=O)O [Oxalate, oxalic acid]",effect on boll weevil larvae,boll weevil larvae [1],lethal
same,mortality and stunting of larvae of lepidopteran insects,Lepidopteran larvae,mortality and stunting
same,effect on reproductive cycle of adult boll weevils,adult boll weevils,affect the reproductive cycle
same,effect on reproductive cycle of adult boll weevils,adult boll weevils; listed as Oxlate,interrupt the reproductive cycle
same,mortality of boll weevil larvae,boll weevil larvae [2],lethal
same,insecticidal activity in the presence of cotton leaf tissue,boll weevil larvae [3],maintains its insecticidal activity
